Assay results taken from ChEMBL document CHEMBL1134004, “Synthesis and in vitro cytotoxicity of novel long chain busulphan analogues” (Bioorg Med Chem Lett, 2001).

Legend:
Assay type in all cases: functional, cell-based
[1] = system: Lewis lung carcinoma cell line; test: In vitro cytotoxicity causing 50% growth inhibition was determined against LL (murine non small cell lung cancer) cell line; settings: Mus musculus
UMSCC22B = test: In vitro cytotoxicity causing 50% growth inhibition was determined against 22B (human head and neck squamous) cell line
Colon 26 = test: In vitro cytotoxicity causing 50% growth inhibition was determined against C26-10 (murine colon carcinoma) cell line; settings: Mus musculus
H322 = test: In vitro cytotoxicity causing 50% growth inhibition was determined against H322 (human non small cell lung cancer) cells; settings: NCI-H322
WiDr = test: In vitro cytotoxicity causing 50% growth inhibition was determined against WiDr (human colon carcinoma) cell line
A2780 = test: In vitro cytotoxicity causing 50% growth inhibition was determined against […] (human ovarian cancer)cell line

| SMILES | IC50 [1] [µM] | IC50 (UMSCC22B) [µM] | IC50 (Colon 26) [µM] | IC50 (H322) [µM] | IC50 (WiDr) [µM] | IC50 (A2780) [µM] |
| --- | --- | --- | --- | --- | --- | --- |
| CCCCCCCCCCCCCCC(CCOS(C)(=O)=O)COS(C)(=O)=O (stereo not drawn) | 20.8 | 26.4 | 26.3 | 25.1 | 24.9 | 25.9 |
| CCCCCCCCCCCCCCC(COS(C)(=O)=O)OS(C)(=O)=O (stereo not drawn) | 28.4 | 46.5 | 31 | 59.7 | 25.6 | 45.5 |
| CS(=O)(=O)OCCCCOS(C)(=O)=O [BUSULFAN] | > 100 | > 100 | 92.5 | > 100 | > 100 | > 100 |
